Measurements reported in US20090311217A1, “3-SUBSTITUTED-1H-INDOLE COMPOUNDS, THEIR USE AS MTOR KINASE AND PI3 KINASE INHIBITORS, AND THEIR SYNTHESES” (priority 2008, published 2009).

Key:
Assay type in all cases: biochemical
PI3K-gamma = PI3K-gamma (Homo sapiens, UniProt P48736); experiment: PI3K-gamma fluorescence polarization assay; details: PI3Kγ Avg. IC50
Procedure, shortened: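 Reactions used 5 ng enzyme with 2.5 μM diC8-PI(4,5)P2 and 25 μM ATP in 5 mM HEPES pH 7, 2.5 mM MgCl2, run 1 h at 25° C. After an EDTA quench (10 mM), 100 nM GST-GRP1 PH domain and 5 nM BODIPY-TMR-IP4 were added and fluorescence polarization was read.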

human TOR = molecular target: T1, human TOR (Homo sapiens, UniProt P42345); experiment: mTOR enzyme assay (DELFIA, His6-S6K substrate); details: read-out: mTOR Kinase Avg. IC50
T1 construct: FLAG

PI3K-alpha = PI3K-alpha (Homo sapiens, UniProt P42336); experiment: PI3K-alpha fluorescence polarization assay; details: read-out: PI3Kα Avg. IC50
Chain of PI3K-alpha (P42336 whole entry, species assumed): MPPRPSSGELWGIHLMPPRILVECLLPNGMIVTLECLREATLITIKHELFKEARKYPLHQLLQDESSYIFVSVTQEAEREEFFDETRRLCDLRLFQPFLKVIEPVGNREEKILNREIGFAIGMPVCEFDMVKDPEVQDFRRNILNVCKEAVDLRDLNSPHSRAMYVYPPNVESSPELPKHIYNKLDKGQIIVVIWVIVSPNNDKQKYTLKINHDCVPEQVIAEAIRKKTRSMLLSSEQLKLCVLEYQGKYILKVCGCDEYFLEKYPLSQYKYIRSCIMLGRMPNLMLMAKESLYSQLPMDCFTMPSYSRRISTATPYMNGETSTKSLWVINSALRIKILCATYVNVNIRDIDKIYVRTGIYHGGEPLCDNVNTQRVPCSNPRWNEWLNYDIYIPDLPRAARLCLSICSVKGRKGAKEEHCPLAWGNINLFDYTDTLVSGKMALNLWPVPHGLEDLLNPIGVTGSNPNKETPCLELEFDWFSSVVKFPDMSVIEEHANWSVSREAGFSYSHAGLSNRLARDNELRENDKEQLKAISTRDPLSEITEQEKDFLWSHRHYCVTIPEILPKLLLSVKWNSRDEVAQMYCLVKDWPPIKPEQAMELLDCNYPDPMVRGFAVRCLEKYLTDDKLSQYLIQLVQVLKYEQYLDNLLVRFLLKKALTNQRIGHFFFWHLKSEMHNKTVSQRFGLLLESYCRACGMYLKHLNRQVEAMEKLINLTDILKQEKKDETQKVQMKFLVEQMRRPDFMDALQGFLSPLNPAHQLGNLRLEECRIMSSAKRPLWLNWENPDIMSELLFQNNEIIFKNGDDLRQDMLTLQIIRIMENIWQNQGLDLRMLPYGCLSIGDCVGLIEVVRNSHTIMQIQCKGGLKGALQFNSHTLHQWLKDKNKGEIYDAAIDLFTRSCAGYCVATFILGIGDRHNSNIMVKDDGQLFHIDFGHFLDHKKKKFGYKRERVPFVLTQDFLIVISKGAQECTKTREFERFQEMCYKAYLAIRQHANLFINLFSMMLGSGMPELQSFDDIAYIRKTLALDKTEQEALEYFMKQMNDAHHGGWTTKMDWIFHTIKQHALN
Chain of PI3K-alpha (P27986 whole entry partner, species assumed): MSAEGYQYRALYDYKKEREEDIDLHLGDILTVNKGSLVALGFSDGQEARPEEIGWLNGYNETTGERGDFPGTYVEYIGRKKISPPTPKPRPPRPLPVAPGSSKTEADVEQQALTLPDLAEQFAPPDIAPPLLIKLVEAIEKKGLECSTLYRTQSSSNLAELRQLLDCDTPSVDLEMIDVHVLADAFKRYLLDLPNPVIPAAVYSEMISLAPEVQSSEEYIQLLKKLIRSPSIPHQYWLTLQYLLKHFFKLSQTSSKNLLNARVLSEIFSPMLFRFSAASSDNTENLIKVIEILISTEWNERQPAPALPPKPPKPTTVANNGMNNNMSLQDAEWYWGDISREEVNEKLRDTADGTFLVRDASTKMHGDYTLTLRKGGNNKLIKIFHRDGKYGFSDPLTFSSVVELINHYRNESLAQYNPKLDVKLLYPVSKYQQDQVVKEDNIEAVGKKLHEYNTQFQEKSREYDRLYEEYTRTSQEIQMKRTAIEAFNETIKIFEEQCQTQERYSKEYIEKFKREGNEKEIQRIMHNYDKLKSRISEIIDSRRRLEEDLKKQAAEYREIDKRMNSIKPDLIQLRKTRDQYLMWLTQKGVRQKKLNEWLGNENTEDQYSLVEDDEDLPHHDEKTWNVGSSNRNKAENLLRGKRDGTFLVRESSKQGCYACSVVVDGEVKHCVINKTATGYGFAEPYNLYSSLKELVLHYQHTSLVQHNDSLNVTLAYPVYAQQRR

Chain of PI3K-gamma (P48736 whole entry, species assumed, the tested form may be a part): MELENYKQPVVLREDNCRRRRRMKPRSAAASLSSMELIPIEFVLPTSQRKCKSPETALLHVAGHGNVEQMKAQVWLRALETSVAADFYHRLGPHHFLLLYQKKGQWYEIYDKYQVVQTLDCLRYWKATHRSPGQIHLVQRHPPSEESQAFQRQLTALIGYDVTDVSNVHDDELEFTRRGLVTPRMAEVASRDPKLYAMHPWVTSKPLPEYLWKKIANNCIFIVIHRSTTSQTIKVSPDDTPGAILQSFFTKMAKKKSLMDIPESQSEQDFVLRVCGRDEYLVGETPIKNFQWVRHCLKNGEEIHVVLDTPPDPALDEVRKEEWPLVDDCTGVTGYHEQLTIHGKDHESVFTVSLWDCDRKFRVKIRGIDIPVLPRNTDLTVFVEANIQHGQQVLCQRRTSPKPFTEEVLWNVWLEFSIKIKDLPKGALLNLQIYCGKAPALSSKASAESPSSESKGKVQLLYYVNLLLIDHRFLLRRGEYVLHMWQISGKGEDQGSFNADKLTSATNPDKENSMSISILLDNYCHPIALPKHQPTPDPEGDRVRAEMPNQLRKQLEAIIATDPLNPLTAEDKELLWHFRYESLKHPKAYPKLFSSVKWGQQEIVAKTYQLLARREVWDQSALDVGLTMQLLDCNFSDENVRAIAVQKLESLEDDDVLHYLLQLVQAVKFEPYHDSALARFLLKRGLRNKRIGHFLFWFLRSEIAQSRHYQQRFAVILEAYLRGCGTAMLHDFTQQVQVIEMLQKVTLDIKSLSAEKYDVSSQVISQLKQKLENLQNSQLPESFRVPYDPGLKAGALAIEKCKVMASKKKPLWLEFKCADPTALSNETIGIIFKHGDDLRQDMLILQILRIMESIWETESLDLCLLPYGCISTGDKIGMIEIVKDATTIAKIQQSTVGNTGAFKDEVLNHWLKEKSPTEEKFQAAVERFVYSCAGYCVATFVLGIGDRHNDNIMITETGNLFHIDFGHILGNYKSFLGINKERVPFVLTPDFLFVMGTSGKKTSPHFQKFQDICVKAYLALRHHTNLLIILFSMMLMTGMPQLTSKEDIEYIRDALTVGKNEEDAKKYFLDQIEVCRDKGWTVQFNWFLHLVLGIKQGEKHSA

Row | SMILES | IC50 (PI3K-gamma) [nM] | IC50 (human TOR) [nM] | IC50 (PI3K-alpha) [nM]
1 | CNC(=O)Nc1ccc2c(c1)C(=O)/C(=C/c1c(C#N)n(CCN3CCN(C)CC3)c3ccc(OC)cc13)O2 [Compound 628, 1-[(2Z)-2-({2-cyano-5-methoxy-1-[2-(4-methylpiperazin-1-yl)ethyl]-1H-indol-3-yl}methylidene)-3-oxo-2,3-dihydro-1-benzofuran-5-yl]-3-methylurea] | 2730 | 150 | 11
2 | Cc1[nH]c2ccc(Cl)cc2c1C=C1Oc2cc(O)cc(O)c2C1=O [Example 215, 2-[(5-chloro-2-methyl-1H-indol-3-yl)methylene]-4,6-dihydroxy-1-benzofuran-3(2H)-one] | 2610 | 290 | 264
3 | CCN1CCN(C(=O)c2ccc(NC(=O)Nc3ccc4c(c3)C(=O)/C(=C/c3c(-c5c(C)nn(C)c5C)[nH]c5ccc(OC)cc35)O4)cc2)CC1 [Compound 699, 1-{4-[(4-ethylpiperazin-1-yl)carbonyl]phenyl}-3-[(2Z)-2-{[5-methoxy-2-(1,3,5-trimethyl-1H-pyrazol-4-yl)-1H-indol-3-yl]methylidene}-3-oxo-2,3-dihydro-1-benzofuran-5-yl]urea] | 3 | 5 | 0.4
4 | COc1ccc2c(c1)c(/C=C1\Oc3c(ccc(O)c3C)C1=O)c(C)n2CCN1CCN(C)CC1 [Example 347, (2Z)-6-Hydroxy-2-({5-methoxy-2-methyl-1-[2-(4-methylpiperazin-1-yl)ethyl]-1H-indol-3-yl}methylene)-7-methyl-1-benzofuran-3(2H)-one] | 8670 | > 4000 | 408
5 | O=C1C(=Cc2c(-c3ccccc3)n(CCC3CCNCC3)c3ccccc23)Oc2cc(O)cc(O)c21 [Example 158, 4,6-dihydroxy-2-{[2-phenyl-1-(2-piperidin-4-ylethyl)-1H-indol-3-yl]methylene}-1-benzofuran-3(2H)-one] | 4880 | 4600 | 2280
6 | COc1ccc2[nH]c(C3CCCCC3)c(/C=C3\Oc4ccc(NC(=O)Nc5ccc(C(=O)N(C)CCN(C)C)cc5)cc4C3=O)c2c1 [Compound 688, 4-[({(2Z)-2-[(2-cyclohexyl-5-methoxy-1H-indol-3-yl)methylidene]-3-oxo-2,3-dihydro-1-benzofuran-5-yl}carbamoyl)amino]-N-[2-(dimethylamino)ethyl]-N-methylbenzamide] | 1.95 | 6 | 0.3
7 | O=C1C(=Cc2c(-c3ccccc3)n(Cc3ccccc3)c3ccccc23)Oc2cc(O)cc(O)c21 [Example 149, 2-[(1-benzyl-2-phenyl-1H-indol-3-yl)methylene]-4,6-dihydroxy-1-benzofuran-3(2H)-one] | 2010 | 6150 | 1590
8 | CNC(=S)Nc1ccc2c(c1)C(=O)/C(=C/c1c(C)n(CCN3CCN(C)CC3)c3ccc(OC)cc13)O2 [Compound 647, 1-[(2Z)-2-({5-methoxy-2-methyl-1-[2-(4-methylpiperazin-1-yl)ethyl]-1H-indol-3-yl}methylene)-3-oxo-2,3-dihydro-1-benzofuran-5-yl]-3-methylthiourea] | 4850 | 1260 | 10
9 | COc1ccc2[nH]c(-c3c(C)nn(C)c3C)c(/C=C3\Oc4ccc(NC(=O)Nc5ccc(C(=O)N6CCN(C(C)C)CC6)cc5)cc4C3=O)c2c1 [Compound 700, 1-[(2Z)-2-{[5-methoxy-2-(1,3,5-trimethyl-1H-pyrazol-4-yl)-1H-indol-3-yl]methylidene}-3-oxo-2,3-dihydro-1-benzofuran-5-yl]-3-(4-{[4-(1-methylethyl)piperazin-1-yl]carbonyl}phenyl)urea] | 3 | 2 | 0.4
10 | COc1ccc2c(c1)c(/C=C1\Oc3cc(O)cc(O)c3C1=O)c(C1CC1)n2CCO [Example 313, (2Z)-2-{[2-Cyclopropyl-1-(2-hydroxyethyl)-5-methoxy-1H-indol-3-yl]methylene}-4,6-dihydroxy-1-benzofuran-3(2H)-one] | 16.5 | 0.53 | 3
11 | O=C1C(=Cc2c[nH]c3ccc(F)cc23)Oc2cc(O)cc(O)c21 [Example 175, 2-[(5-fluoro-1H-indol-3-yl)methylene]-4,6-dihydroxy-1-benzofuran-3(2H)-one] | > 10000 | 9000 | 1040
12 | CNC(=O)Nc1ccc2c(c1)C(=O)/C(=C/c1c(C3CCCCC3)[nH]c3ccc(OC)cc13)O2 [Compound 641, 1-{(2Z)-2-[(2-cyclohexyl-5-methoxy-1H-indol-3-yl)methylene]-3-oxo-2,3-dihydro-1-benzofuran-5-yl}-3-methylurea] | 8 | 10 | 1.6
13 | CNC(=O)Nc1ccc2c(c1)C(=O)/C(=C/c1c(Br)[nH]c3ccc(OC)cc13)O2 [Compound 692, 1-{(2Z)-2-[(2-bromo-5-methoxy-1H-indol-3-yl)methylidene]-3-oxo-2,3-dihydro-1-benzofuran-5-yl}-3-methylurea] | 105 | 8 | 7
14 | COc1cc(F)c2[nH]c(-c3c(C)nn(C)c3C)c(/C=C3\Oc4ccc(NC(=O)Nc5ccc(C(=O)N6CCN(C)C(C)C6)cc5)cc4C3=O)c2c1 (stereo not drawn) [Compound 730, 1-{4-[(3,4-dimethylpiperazin-1-yl)carbonyl]phenyl}-3-[(2Z)-2-{[7-fluoro-5-methoxy-2-(1,3,5-trimethyl-1H-pyrazol-4-yl)-1H-indol-3-yl]methylidene}-3-oxo-2,3-dihydro-1-benzofuran-5-yl]urea] | 1.9 | 3 | 0.65
15 | CNC(=O)Nc1ccc2c(c1)C(=O)/C(=C/c1c(-c3cnn(C)c3)[nH]c3c(F)cc(OC)cc13)O2 [Compound 718, 1-[(2Z)-2-{[7-fluoro-5-methoxy-2-(1-methyl-1H-pyrazol-4-yl)-1H-indol-3-yl]methylidene}-3-oxo-2,3-dihydro-1-benzofuran-5-yl]-3-methylurea] | 9.5 | 2 | 2.75
16 | COc1ccc2[nH]cc(/C=C3\Oc4c(ccc(O)c4O)C3=O)c2c1 [Example 62, (2Z)-6,7-dihydroxy-2-[(5-methoxy-1H-indol-3-yl)methylene]-1-benzofuran-3(2H)-one] | 3770 | 16000 | 673
17 | Cc1c(C=C2Oc3cc(O)cc(O)c3C2=O)c2cc(Cl)ccc2n1CCCC#N [Example 238, 4-{5-chloro-3-[(4,6-dihydroxy-3-oxo-1-benzofuran-2(3H)-ylidene)methyl]-2-methyl-1H-indol-1-yl}butanenitrile] | 2820 | 360 | 288
18 | CNCCNC(=O)c1ccc(NC(=O)Nc2ccc3c(c2)C(=O)/C(=C/c2c(C4CCCCC4)[nH]c4ccc(OC)cc24)O3)cc1 [Compound 660, 4-[({(2Z)-2-[(2-cyclohexyl-5-methoxy-1H-indol-3-yl)methylene]-3-oxo-2,3-dihydro-1-benzofuran-5-yl}carbamoyl)amino]-N-[2-(methylamino)ethyl]benzamide] | 2.95 | 4 | 0.3

Further lines, results first:

Row | IC50 (PI3K-gamma) [nM] | IC50 (human TOR) [nM] | IC50 (PI3K-alpha) [nM] | SMILES
19 | 984 | 47 | 11.5 | COc1ccc2c(c1)c(/C=C1\Oc3cc(O)ccc3C1=O)c(C1CCCC1)n2CCN1CCN(C)CC1 [Example 411, (2Z)-2-({2-Cyclopentyl-5-methoxy-1-[2-(4-methylpiperazin-1-yl)ethyl]-1H-indol-3-yl}methylene)-6-hydroxy-1-benzofuran-3(2H)-one]
20 | > 5100 | 1240 | > 5100 | Cn1cc(/C=C2\Oc3cc(O)ccc3C2=O)c2c(-c3ccccc3)cccc21 [Example 443, (2Z)-6-Hydroxy-2-((1-methyl-4-phenyl-1H-indol-3-yl)methylene)benzofuran-3(2H)-one]
21 | > 10000 | > 20000 | > 10000 | COc1ccc(Br)c2c1C(=O)/C(=C/c1cn(C)c3cccc(-c4ccccc4)c13)O2 [Example 423, (2Z)-7-Bromo-4-methoxy-2-[(1-methyl-4-phenyl-1H-indol-3-yl)methylene]benzofuran-3(2H)-one]
22 | 5610 | > 20000 | 7820 | COc1ccc2c(c1)c(/C=C1\Oc3cc(Br)ccc3C1=O)cn2CCCN(C)C [Example 413, (2Z)-6-bromo-2-({1-[3-(dimethylamino)propyl]-5-methoxy-1H-indol-3-yl}methylene)-1-benzofuran-3(2H)-one]
23 | 2100 | > 20000 | 4740 | COc1ccc2c(c1)c(/C=C1\Oc3cc(NC(=O)OC(C)(C)C)ccc3C1=O)cn2CCCN(C)C [Example 417, tert-butyl (2Z)-[2-({1-[3-(dimethylamino)propyl]-5-methoxy-1H-indol-3-yl}methylene)-3-oxo-2,3-dihydro-1-benzofuran-6-yl]carbamate]
24 | 100 | 12.3 | 65.5 | COc1ccc2c(c1)c(/C=C1\Oc3cc(O)cc(O)c3C1=O)c(C1CC1)n2CC(=O)N(C)C [Example 444, 2-{2-Cyclopropyl-3-[(Z)-(4,6-dihydroxy-3-oxo-1-benzofuran-2(3H)-ylidene)methyl]-5-methoxy-1H-indol-1-yl}-N,N-dimethylacetamide]
25 | > 10000 | > 20000 | > 10000 | Cn1cc(/C=C2\Oc3cccc(O)c3C2=O)c2ccccc21 [Example 441, (2Z)-4-Hydroxy-2-[(1-methyl-1H-indol-3-yl)methylene]benzofuran-3(2H)-one]
26 | 517 | 1300 | 32 | COc1ccc2c(c1)c(/C=C1\Oc3cc(O)ccc3C1=O)c(C)n2CCN1CCCCC1 [Example 454, (2Z)-6-Hydroxy-2-{[5-methoxy-2-methyl-1-(2-piperidin-1-ylethyl)-1H-indol-3-yl]methylene}-1-benzofuran-3(2H)-one]
